Assay results: ChEMBL document CHEMBL1154822, “Synthesis and antiproliferative activity of 7-azaindirubin-3'-oxime, a 7-aza isostere of the natural indirubin pharmacophore” (J Nat Prod, 2009)

Key:
Format in all cases: functional
OVCAR-8 [1] = assay: Cytotoxicity against human OVCAR8 cells assessed as cell growth at 1 uM after 1 to 11 days by MTT assay; conditions: read-out: Activity
RXF 393 = assay: Cytotoxicity against human […] cells assessed as cell growth at 1 uM after 1 to 11 days by MTT assay; conditions: read-out: Activity
SN12C [2] = assay: Cytotoxicity against human SN12C cells assessed as cell growth at 1 uM after 1 to 11 days by MTT assay; conditions: read-out: Activity
UACC-257 = assay: Cytotoxicity against human UACC257 cells assessed as cell growth at 10 uM after 1 to 11 days by MTT assay; conditions: read-out: Activity
CCRF-CEM = assay: Cytotoxicity against human CCRF-CEM cells assessed as cell growth at 10 uM after 1 to 11 days by MTT assay; conditions: read-out: Activity
A549 = assay: Cytotoxicity against human A549 cells assessed as cell growth at 10 uM after 1 to 11 days by MTT assay; conditions: read-out: Activity
HOP-92 [3] = assay: Cytotoxicity against human HOP92 cells assessed as cell growth at 10 uM after 1 to 11 days by MTT assay; conditions: read-out: Activity
NCI-H522 = assay: Cytotoxicity against human NCI-H522 cells assessed as cell growth at 10 uM after 1 to 11 days by MTT assay; conditions: read-out: Activity
COLO 205 [4] = assay: Cytotoxicity against human COLO205 cells assessed as cell growth at 10 uM after 1 to 11 days by MTT assay; conditions: read-out: Activity
HCT-116 [5] = assay: Cytotoxicity against human HCT116 cells assessed as cell growth at 10 uM after 1 to 11 days by MTT assay; conditions: read-out: Activity
U-251 [6] = assay: Cytotoxicity against human U251 cells assessed as cell growth at 10 uM after 1 to 11 days by MTT assay; conditions: read-out: Activity
SK-MEL-28 = assay: Cytotoxicity against human SK-MEL-28 cells assessed as cell growth at 100 uM after 1 to 11 days by MTT assay; conditions: read-out: Activity
SK-MEL-5 = assay: Cytotoxicity against human SK-MEL-5 cells assessed as cell growth at 100 uM after 1 to 11 days by MTT assay; conditions: read-out: Activity
COLO 205 [7] = assay: Cytotoxicity against human COLO205 cells assessed as cell growth at 100 uM after 1 to 11 days by MTT assay; conditions: read-out: Activity
HT-29 [8] = assay: Cytotoxicity against human HT-29 cells assessed as cell growth at 100 uM after 1 to 11 days by MTT assay; conditions: read-out: Activity
OVCAR-8 [9] = assay: Cytotoxicity against human OVCAR8 cells assessed as cell growth at 100 uM after 1 to 11 days by MTT assay; conditions: read-out: Activity
SK-OV-3 [10] = assay: Cytotoxicity against human SKOV3 cells assessed as cell growth at 100 uM after 1 to 11 days by MTT assay; conditions: read-out: Activity
SN12C [11] = assay: Cytotoxicity against human SN12C cells assessed as cell growth at 100 uM after 1 to 11 days by MTT assay; conditions: read-out: Activity
HCC 2998 [12] = assay: Cytotoxicity against human HCC2998 cells assessed as cell growth at 1 mM after 1 to 11 days by MTT assay; conditions: read-out: Activity
HCT-15 = assay: Cytotoxicity against human HCT15 cells assessed as cell growth at 1 mM after 1 to 11 days by MTT assay; conditions: read-out: Activity
HCT-116 [13] = assay: Cytotoxicity against human HCT116 cells after 1 to 11 days by MTT assay
HT-29 [14] = assay: Cytotoxicity against human HT-29 cells after 1 to 11 days by MTT assay
SNB-19 = assay: Cytotoxicity against human SNB19 cells after 1 to 11 days by MTT assay
OVCAR-5 [15] = assay: Cytotoxicity against human OVCAR5 cells assessed as cell growth at 1 mM after 1 to 11 days by MTT assay; conditions: read-out: Activity
SK-OV-3 [16] = assay: Cytotoxicity against human SKOV3 cells assessed as cell growth at 1 mM after 1 to 11 days by MTT assay; conditions: read-out: Activity
ACHN = assay: Cytotoxicity against human ACHN cells assessed as cell growth at 1 mM after 1 to 11 days by MTT assay; conditions: read-out: Activity
IGROV-1 = assay: Cytotoxicity against human IGROV1 cells after 1 to 11 days by MTT assay
OVCAR-4 = assay: Cytotoxicity against human OVCAR4 cells after 1 to 11 days by MTT assay
OVCAR-5 [17] = assay: Cytotoxicity against human OVCAR5 cells after 1 to 11 days by MTT assay
A498 = assay: Cytotoxicity against human A498 cells after 1 to 11 days by MTT assay
MDA-MB-468 = assay: Cytotoxicity against human MDA-MB-468 cells after 1 to 11 days by MTT assay
SF-539 = assay: Cytotoxicity against human SF539 cells assessed as cell growth at 0.1 uM after 1 to 11 days by MTT assay; conditions: read-out: Activity
HCC 2998 [18] = assay: Cytotoxicity against human HCC2998 cells assessed as cell growth at 0.1 uM after 1 to 11 days by MTT assay; conditions: read-out: Activity
HT-29 [19] = assay: Cytotoxicity against human HT-29 cells assessed as cell growth at 0.1 uM after 1 to 11 days by MTT assay; conditions: read-out: Activity
OVCAR-8 [20] = assay: Cytotoxicity against human OVCAR8 cells assessed as cell growth at 0.1 uM after 1 to 11 days by MTT assay; conditions: read-out: Activity
MCF7 = assay: Cytotoxicity against human MCF7 cells assessed as cell growth at 0.1 uM after 1 to 11 days by MTT assay; conditions: read-out: Activity
K562 = assay: Cytotoxicity against human K562 cells assessed as cell growth at 1 uM after 1 to 11 days by MTT assay; conditions: read-out: Activity
MOLT-4 = assay: Cytotoxicity against human MOLT4 cells assessed as cell growth at 1 uM after 1 to 11 days by MTT assay; conditions: read-out: Activity
HOP-92 [21] = assay: Cytotoxicity against human HOP92 cells assessed as cell growth at 1 uM after 1 to 11 days by MTT assay; conditions: read-out: Activity
NCI-H226 = assay: Cytotoxicity against human NCI-H226 cells assessed as cell growth at 1 uM after 1 to 11 days by MTT assay; conditions: read-out: Activity
COLO 205 [22] = assay: Cytotoxicity against human COLO205 cells assessed as cell growth at 1 uM after 1 to 11 days by MTT assay; conditions: read-out: Activity
HT-29 [23] = assay: Cytotoxicity against human HT-29 cells assessed as cell growth at 1 uM after 1 to 11 days by MTT assay; conditions: read-out: Activity
KM12 = assay: Cytotoxicity against human KM12 cells assessed as cell growth at 1 uM after 1 to 11 days by MTT assay; conditions: read-out: Activity
U-251 [24] = assay: Cytotoxicity against human U251 cells assessed as cell growth at 1 uM after 1 to 11 days by MTT assay; conditions: read-out: Activity
[25] = read-out: LC50 (the source's name)

Compound O=C1Nc2ncccc2/C1=C1/Nc2ccccc2/C1=N\O has a growth at 1 µM (OVCAR-8 [1]) of 85%, a growth at 1 µM (RXF 393) of 94% and a growth at 1 µM (SN12C [2]) of 89%. For the same compound, the growth at 10 µM (UACC-257) was 114%, the growth at 10 µM (CCRF-CEM) was 82% and the growth at 10 µM (A549) was 91%. The growth at 10 µM (HOP-92 [3]) was 62%, the growth at 10 µM (NCI-H522) was 99% and the growth at 10 µM (COLO 205 [4]) was 84%. The growth at 10 µM (HCT-116 [5]) was 108%, the growth at 10 µM (U-251 [6]) was 89% and the growth at 100 µM (SK-MEL-28) was 54%. For the same compound, the growth at 100 µM (SK-MEL-5) was 49%, the growth at 100 µM (COLO 205 [7]) was 59% and the growth at 100 µM (HT-29 [8]) was 81%. It also gave a growth at 100 µM (OVCAR-8 [9]) of 50%, a growth at 100 µM (SK-OV-3 [10]) of -6% and a growth at 100 µM (SN12C [11]) of 37%. It also gave a growth at 1000 µM (HCC 2998 [12]) of 36%, a growth at 1000 µM (HCT-15) of 24% and a TGI (HCT-116 [13]) of over 100 µM. The CC50 (HCT-116 [13]; [25]) was over 100 µM, the GI50 (HT-29 [14]) was 88.8 µM and the TGI (HT-29 [14]) was over 100 µM. The CC50 (HT-29 [14]; [25]) was over 100 µM, the GI50 (SNB-19) was over 100 µM and the TGI (SNB-19) was over 100 µM. It also gave a CC50 (SNB-19; [25]) of over 100 µM, a growth at 1000 µM (OVCAR-5 [15]) of 49% and a growth at 1000 µM (SK-OV-3 [16]) of 8%. The growth at 1000 µM (ACHN) was 17%, the GI50 (IGROV-1) was 1.64 µM and the TGI (IGROV-1) was over 100 µM. For the same compound, the CC50 (IGROV-1; [25]) was over 100 µM, the GI50 (OVCAR-4) was 9.1 µM and the TGI (OVCAR-4) was over 100 µM. The CC50 (OVCAR-4; [25]) was over 100 µM, the GI50 (OVCAR-5 [17]) was 93.9 µM and the TGI (OVCAR-5 [17]) was over 100 µM. The CC50 (OVCAR-5 [17]; [25]) was over 100 µM, the GI50 (A498) was 1.93 µM and the TGI (A498) was over 100 µM. It also gave a CC50 (A498; [25]) of over 100 µM, a GI50 (MDA-MB-468) of 3.01 µM and a TGI (MDA-MB-468) of over 100 µM. It also gave a CC50 (MDA-MB-468; [25]) of over 100 µM, a growth at 0.1 µM (SF-539) of 89% and a growth at 0.1 µM (HCC 2998 [18]) of 93%. The growth at 0.1 µM (HT-29 [19]) was 99%, the growth at 0.1 µM (OVCAR-8 [20]) was 79% and the growth at 0.1 µM (MCF7) was 98%. The growth at 1 µM (K562) was 76%, the growth at 1 µM (MOLT-4) was 77% and the growth at 1 µM (HOP-92 [21]) was 81%. It also gave a growth at 1 µM (NCI-H226) of 84%, a growth at 1 µM (COLO 205 [22]) of 87% and a growth at 1 µM (HT-29 [23]) of 98%. The growth at 1 µM (KM12) was 91% and the growth at 1 µM (U-251 [24]) was 97%.
